Data: patent publication US5852005A, “Tetracyclic triterpenes” (Novartis AG, priority 1994, dated 1998)
In brackets after ≈: the same amount, converted by molar mass. Like-named read-outs stand apart in the source and are kept apart here.

Key:
[1] = system: Spleen cells (proliferative response of lymphocytes to allogenic stimulation); assay: Two-way MLR (Murine Mixed Lymphocyte Reaction); type: cell-based, mouse (Balb/c, CBA); conditions: Table 5
Experimental: 1. Proliferative Response Of Lymphocytes to Allogenic Stimulation
Two-way MLR (Murine Mixed Lymphocyte Reaction)
Spleen cells (0.5×106) from Balb/c mice (female, 8-10 weeks) are co-incubated for 5 .sctn.days with 0.5×10^6 spleen cells from CBA mice (female, 8-10 weeks). The allogenic cells induce a proliferative response in the responder spleen cell population which is measured by labelled precursor incorporation into the DNA. Test compounds are added at the start of incubation at varying concentrations and proliferative response compared with untreated controls.
(§1) Fractions are dissolved in ethanol and tested in the Mishell-Dutton assay (primary humoral immune-response to SRBC in vitro, MD) a mixed lymphocyte reaction (MLR) and on the P-815 mastocytoma cell line for cytotoxicity.

[2] = system: Jurkat cells; assay: Cytotoxic and cytostatic activity using transformed human T-cell line (Jurkat); type: cell-based; conditions: Table 5
Experimental: 2. Cytotoxic and cytostatic activity using a transformed human T-cell line (Jurkat)
5×10^4 Jurkat cells are grown in a final volume of 0.2 ml for 72 hours after which the cell numbers are enumerated by use of an enzymatic assay using p-nitrophenyl-N-acetyl-β-D-glucosamindle as substrate. Test compounds are added at varying concentration at the start of culture and cytotoxicity compared with untreated controls.

[3] = system: P-815 mastocytoma cells; assay: Cytotoxic and cytostatic activity in vitro using the P-815 mastocytoma cell line; type: cell-based; conditions: Table 5
Experimental: as §1

[4] = system: DTH reaction (footpad swelling); assay: DTH (delayed-type hypersensitivity) induced by SRBC-TH cells; type: in vivo, mouse (C57 BL/6); conditions: Mus musculus, po, 24 h, read-out: TEST 9 (DTH) ED50
Experimental: 50 μl of the SRBC cell suspension (diluted 1:1 v/v with PBS) is injected s.c. into the left hind footpad (to measure non specific increase in footpad swelling due to the injection procedure). Right and left hind footpad thickness is measured 24 hours later.

[5] = system: systemic lupus erythematosus (disease onset); assay: Systemic lupus erythematosus (SLE) in the mouse (NZB/NZW); type: in vivo, mouse (NZB/NZW F1); conditions: po, read-out: TEST 10 (SLE) ED100
Experimental: 10. Systemic lupus erythematosus (SLE) in the mouse (NZB/NZW)
Female New Zealand black/white (NZB/NZW) F1 mice spontaneously develop characteristics that resemble systemic lupus erythematosus. […] Treatment starts at 24 weeks of age when animals show proteinurea. Compounds are administered p.o. 3 times a week for a total of 12 weeks. Status is determined every second week and animals are sent for histological evaluation at termination of the experiment Ten mice are used per group.

[6] = system: GvH reaction (popliteal lymph node weight); assay: Localised Graft-versus-Host (GvH) Reaction in the rat; type: in vivo; conditions: up to about 100× more active than corresponding 17β-epimers
Experimental: 4. Localised Graft-versus-Host (GvH) Reaction in the rat
Spleen cells (1×10^7) from 6 week old female Wistar/Furth (WE) rats are injected subcutaneously on day 0 into the left hind-paw of female (F344×WF)F1 rats weighing about 100 g. Animals are treated for 4 consecutive days and the popliteal lymph nodes are removed and weighed on day 7. The difference in weight between the two lymph nodes is taken as the parameter for evaluating the reaction. Test compounds are administered daily for 4 days at varying dosage p.o. and inhibition compared with untreated controls. Dammara compounds are active (inhibit GvH reaction) in this test model at doses of the order of from 10 μg to 10 mg/kg/day p.o..

Structure (SMILES) | IC50 MLR [1] [µg/mL] | IC50 Jurkat [2] [µg/mL] | IC50 P-815 [3] [µg/mL] | ED50 [4] [mg/kg] | ED100 [5] [mg/kg] | ED50 ([4]; one trial run) [mg/kg] | activity relative to corresponding 17β-epimers [6] | IC50 ([1]; Mus musculus, Lymphocyte) [µg/mL] | IC50 ([2]; Homo sapiens, Jurkat) [µg/mL] | IC50 ([3]; Mus musculus, P815) [µg/mL] | ED100 ([5]; one trial run) [mg/kg]
COc1cc([C@@H]2c3cc4c(cc3C[C@H]3COC(=O)[C@@H]32)OCO4)cc(OC)c1OC [Silicicolin, reference compound] | 0.002 (≈ 5.02 nM) | 0.0025 (≈ 6.27 nM) | 0.004 (≈ 10 nM) |  |  |  |  |  |  |  | 
C=C(C/C=C/C(C)(C)O)[C@H]1CC[C@]2(C)[C@@H]1CC[C@@H]1[C@@]3(C)CC[C@H](O)C(C)(C)[C@@H]3CC[C@]12C [β-EPIMER OF IC, (17β)-23-(E)-dammara-20,23-dien-3β,25-diol] |  |  |  | 10 | 10 |  |  |  |  |  | 
C=C(C/C=C/C(C)(C)O)[C@@H]1CC[C@]2(C)[C@@H]1CC[C@@H]1[C@@]3(C)CC[C@H](O)C(C)(C)[C@@H]3CC[C@]12C [compound of formula IC, (17α)-23-(E)-dammara-20,23-diene-3β,25-diol] | 0.011 |  |  |  |  | 0.004 | up to 100 × | 0.0105 | > 5 | > 5 | 0.01
